Laboratory results reported in US20030032158A1, “Method of modulating the efficiency of translation termination and degradation of aberrant mRNA involving a surveillance complex comprising human Upf1p,eucaryotic release factor 1 and eucaryotic release factor 3” (University of Medicine and Dentistry of New Jersey, priority 1998, published 2003).
“Also recorded” adds a separate entry of the source.

What was measured:
[1] = target: T1, Upf1p-eRF3 interaction (Saccharomyces cerevisiae, UniProt P30771); test: GST-eRF3 pull-down of purified FLAG-Upf1p, immunoblot; type: binding, yeast; settings: 1 mM ATP, 1 mM GTP or 100 μg/ml poly(U) RNA
T1 construct: made in house; host or cells: GST-eRF3: E. coli BL21(DE3) pLysS with pGEX2T-SUP35
T1 sequence (P30771 1-971): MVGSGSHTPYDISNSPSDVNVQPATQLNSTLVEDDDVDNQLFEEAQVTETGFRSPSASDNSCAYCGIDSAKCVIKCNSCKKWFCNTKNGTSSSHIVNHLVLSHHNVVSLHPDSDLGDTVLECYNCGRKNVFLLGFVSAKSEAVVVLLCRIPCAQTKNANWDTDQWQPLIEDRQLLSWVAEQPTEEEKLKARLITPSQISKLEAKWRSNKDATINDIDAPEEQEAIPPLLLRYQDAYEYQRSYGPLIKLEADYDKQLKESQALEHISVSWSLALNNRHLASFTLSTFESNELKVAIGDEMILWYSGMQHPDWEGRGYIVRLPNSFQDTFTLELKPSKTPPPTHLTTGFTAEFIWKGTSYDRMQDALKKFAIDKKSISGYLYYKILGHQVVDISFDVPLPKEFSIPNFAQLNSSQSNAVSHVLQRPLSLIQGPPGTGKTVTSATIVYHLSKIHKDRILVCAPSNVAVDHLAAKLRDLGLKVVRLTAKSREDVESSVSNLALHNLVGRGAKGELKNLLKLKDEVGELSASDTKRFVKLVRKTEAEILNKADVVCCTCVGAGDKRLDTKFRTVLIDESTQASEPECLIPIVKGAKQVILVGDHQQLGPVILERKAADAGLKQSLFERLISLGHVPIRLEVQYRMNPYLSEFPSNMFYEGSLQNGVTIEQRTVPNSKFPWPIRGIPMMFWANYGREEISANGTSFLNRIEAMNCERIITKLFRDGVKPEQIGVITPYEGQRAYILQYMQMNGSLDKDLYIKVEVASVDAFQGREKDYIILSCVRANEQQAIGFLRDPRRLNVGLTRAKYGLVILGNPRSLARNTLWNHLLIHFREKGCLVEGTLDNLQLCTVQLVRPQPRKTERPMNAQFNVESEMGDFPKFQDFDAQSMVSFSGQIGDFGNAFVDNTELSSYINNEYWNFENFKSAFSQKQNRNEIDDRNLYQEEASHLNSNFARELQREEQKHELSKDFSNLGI
Description: FIG. 3. eRF3 and RNA compete for binding to Upf1p. (A) Poly(U) RNA prevents Upf1p from binding to eRF3. Reaction mixtures were prepared as described in FIG. 1B, except that binding was performed in TBSTB (TBST with 100 μg/ml BSA) and reaction mixtures contained 1 mM ATP, 1 mM GTP, or 100 μg/ml poly(U) RNA as indicated above each lane. The reaction mixtures were mixed for 1 hour at 4° C. Following mixing, the complexes were washed as in FIG. 1B with TBSTB containing 1 mM ATP, 1 mM GTP, or 100 μg/ml poly(U) RNA as indicated above each lane. […] Reaction mixtures were prepared as in FIG. 1B, in the presence or absence of […] poly(U) RNA as indicated above each lane. (C) eRF3 inhibits Upf1p RNA binding. A uniformly labeled 32 nt RNA was synthesized by SP6 transcription of SstI digested pGEM5Zf(+). The indicated amounts of GST-eRF3, were incubated with 200 ng Upf1p for 15 minutes at 4° C. 50 fmol of the RNA substrate was added and incubated for 5 minutes. Stop solution was added, and reactions electrophoresed in a 4.5% native PAGE gel (0.5×TBE, 30:0.5 acrylamide:bisacrylamide, with 5% glycerol). […]
Further, purified Flag-Upf1p with poly(U) RNA was incubated in the presence or absence of ATP. […] GST-eRF3 was added to the reaction mixtures and the Upf1-eRF3 interaction was monitored by immunoblotting analysis as before.

[2] = system: isogenic wild-type and upf3Δ strains; settings: cells harboring the mof4-1 allele of UPF1; previous results; cited from earlier work
[3] = system: −1 ribosomal frameshifting; test: β-galactosidase assay of −1 ribosomal frameshifting with plasmids pF8 / pTI25; type: cell-based, Saccharomyces cerevisiae
Description: Killer assays, frameshifting assays and extraction and analysis of total nucleic acids:The killer assay was carried out as previously described (Dinman, J. D., and Wickner, R. B. (1992)) by replica plating colonies onto 4.7 MB plates newly seeded with a lawn of 5×47 killer indicator cells (0.5 ml of a suspension at 1 unit of optical density at 550 nm per ml per plate). After 2 days at 20° C., killer activity was observed as a zone of growth inhibition around the killer colonies. To quantitate loss of killer activity, colonies that had been identified as killer^+ were re-streaked for single colonies and the percentage of killer^− colonies were determined. The efficiencies of −1 frameshifting were determined as previously described (Cui, Y., Dinman, J. D., and Peltz, S. W. (1996); Dinman, J. D., Ruiz-Echevarria, M. J., Czaplinski, K. and Peltz, S. W. (1997b)) using the 0-frame control (pTI25) and −1 reporter (pF8) plasmids.
Methods to measure efficiencies of programmed ribosomal frameshifting in vivo have been described previously (Cui, Y., Dinman, J. D., and Peltz, S. W. (1996); Dinman, J. D., Icho, T., and Wickner, R. B. (1991); Dinman, J. D., Ruiz-Echevarria, M. J., Czaplinski, K. and Peltz, S. W. (1997b)). […] Similarly, the +1 ribosomal frameshift efficiency is calculated based on the pJD104 to pTI25 β-gal ratios. […]

[4] = system: isogenic wild-type and upf3Δ strains; test: Paromomycin sensitivity, zone of growth inhibition around a disc on a lawn of cells; type: cell-based, Saccharomyces cerevisiae
Description: FIG. 11. Paromomycin sensitivity was monitored in isogenic wild-type and upf3Δ strains by placing a disc containing 1 mg of paromomycin onto a lawn of cells and determining the zone of growth inhibition around the disc.
Paromomycin sensitivity was monitored in isogenic wild-type and upf3Δ strains by placing a disc containing 1 mg of paromomycin onto a lawn of cells and determining the zone of growth inhibition around the disc (FIG. 11).

For `Nc1ncnc2c1ncn2[C@@H]1O[C@H](COP(=O)(O)OP(=O)(O)OP(=O)(O)O)[C@@H](O)[C@H]1O` [ATP], which “Effect on interaction between Upf1p and eRF3” value [1] is on record?
The value was “did not affect the interaction; also recorded: did not prevent association of Upf1p with eRF3”.

For `Nc1nc2c(ncn2[C@@H]2O[C@H](COP(=O)(O)OP(=O)(O)OP(=O)(O)O)[C@@H](O)[C@H]2O)c(=O)[nH]1` [GTP], which “Effect on interaction between Upf1p and eRF3” value [1] is on record?
The value was “not affected”.

For `NC[C@@H]1O[C@H](O[C@H]2[C@@H](O)[C@H](O[C@@H]3[C@@H](O)[C@H](N)C[C@H](N)[C@H]3O[C@H]3O[C@H](CO)[C@@H](O)[C@H](O)[C@H]3N)O[C@@H]2CO)[C@H](N)[C@@H](O)[C@@H]1O` [paromomycin], which Paromomycin sensitivity [2] is on record?
The Paromomycin sensitivity was “increased sensitivity to paromomycin than the isogenic wild-type strain”.

What about the “β-galactosidase activity (−1 frameshift reporter)” value ([3]; upf3Δ cells carrying pF8, liquid media, different concentrations of the drug) of the same compound?
Its value is “increased continuously with increased concentrations of paromomycin”.

And the β-galactosidase activity ([3]; wild-type cells containing pF8, or any strain carrying pTI25 (zero frame control))?
The β-galactosidase activity was “unaffected”.

And the “Paromomycin sensitivity (zone of growth inhibition)” value ([4]; upf1Δ or upf2Δ strains)?
The value was “Neither the upf1Δ or upf2Δ strains demonstrate hypersensitivity”.

And the “Paromomycin sensitivity (zone of growth inhibition)” value ([4]; upf3Δ strain vs isogenic wild-type, disc containing 1 mg of paromomycin)?
Its value is “more sensitive to paromomycin than the isogenic wild-type strain”.
